Patent US20250228835A1, “PYRIDINYLOXYPYRIDINES AND RELATED COMPOUNDS AND THEIR USE IN TREATING MEDICAL CONDITIONS” (Rectify Pharmaceuticals, Inc., priority 2024, published 2025)

Target: T1, ABCD2 WT (Homo sapiens, UniProt Q9UBJ2)
T1 construct: expressed in transfected cells
T1 sequence (Q9UBJ2 1-740): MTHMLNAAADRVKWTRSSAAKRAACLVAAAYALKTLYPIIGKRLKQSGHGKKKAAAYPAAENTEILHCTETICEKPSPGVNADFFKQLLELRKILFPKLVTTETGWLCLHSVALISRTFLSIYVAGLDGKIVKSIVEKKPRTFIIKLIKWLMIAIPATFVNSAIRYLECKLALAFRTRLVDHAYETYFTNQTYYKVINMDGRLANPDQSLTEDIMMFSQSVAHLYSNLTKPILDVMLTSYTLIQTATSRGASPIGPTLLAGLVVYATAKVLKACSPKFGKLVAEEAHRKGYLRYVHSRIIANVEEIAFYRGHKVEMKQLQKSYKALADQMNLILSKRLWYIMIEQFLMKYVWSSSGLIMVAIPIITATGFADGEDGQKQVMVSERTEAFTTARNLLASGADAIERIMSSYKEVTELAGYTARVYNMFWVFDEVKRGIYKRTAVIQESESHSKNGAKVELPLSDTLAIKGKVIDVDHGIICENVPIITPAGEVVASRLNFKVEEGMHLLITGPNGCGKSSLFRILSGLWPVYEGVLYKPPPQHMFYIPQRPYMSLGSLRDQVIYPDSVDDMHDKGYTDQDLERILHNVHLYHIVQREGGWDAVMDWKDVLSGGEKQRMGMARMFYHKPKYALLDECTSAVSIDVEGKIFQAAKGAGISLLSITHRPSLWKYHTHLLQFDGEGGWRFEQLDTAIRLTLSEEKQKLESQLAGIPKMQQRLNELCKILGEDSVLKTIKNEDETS
Test: D2 correction dose-response assay: ABCD2 WT HiBit protein expression
Assay type: cell-based
Details: HEK-293/ABCD2 WT cells, 24 hours treatment, HiBit luminescence; class combines EC50 and Mean MaxAct (fold); read-out: ABCD2 WT EC50, Emax
In short: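 HEK-293 cells stably expressing HiBit-tagged human ABCD2 WT were treated with 11 doses (3-fold dilutions, top final 30 μM, 0.3% DMSO) for 24 h at 37 °C. Expression was measured by HiBit lytic luminescence after 1 h at 25 °C, giving EC50 and Emax.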

SMILES	EC50 [µM]
COC(=O)N1CCN(c2ccc(NS(C)(=O)=O)c(Oc3c(C)cc(C)cc3C)n2)CC1 [Compound I-16]	10 to 25
Cc1cc(C)c(Oc2nc(-c3cnn(C)c3C)ccc2NS(C)(=O)=O)c(C)c1 [Compound I-13]	> 25
Cc1cc(Oc2nc(-c3cncc(C#N)c3)ccc2NS(C)(=O)=O)c(C)nc1C1CC1 [Compound I-127]	> 25
Cc1nc(C)c(Oc2nc(-c3cncc(C(F)(F)F)c3)ccc2NS(C)(=O)=O)c(C)n1 [Compound I-192]	> 25
Cc1cc(C)c(Oc2nc(-c3cncc(C#N)c3)ccc2NS(=O)(=O)C2(C)CC2)c(C)n1 [Compound I-172]	> 25
Cc1cc(N2CCC2)nc(C)c1Oc1nc(-c2cncc(C#N)c2)ccc1NS(C)(=O)=O [Compound I-177]	> 25
Cc1cc(C)c(Oc2nc(-c3cncc(C#N)c3)ccc2N2CCCS2(=O)=O)c(C)n1 [Compound I-221]	> 25
COC(=O)c1cncc(-c2ccc(NS(C)(=O)=O)c(Oc3cc(C)n(C)n3)n2)c1 [Compound I-206]	> 25
Cc1cc(C2CC2)nc(C)c1Oc1nc(-c2ccnc(C#N)c2)ccc1NS(C)(=O)=O [Compound I-213]	> 25
Cc1cc(C)c(Oc2nc(-c3cncc(C4CN(C)C4)c3)ccc2NS(C)(=O)=O)c(C)n1 [Compound I-194]	> 25
Cc1cc(C)c(Oc2nc(-c3cncc(S(C)(=N)=O)c3)ccc2NS(C)(=O)=O)c(C)n1 (centres unmarked) [Compound I-116]	> 25
Cc1cc(C2CCC2)nc(C)c1Oc1nc(-c2cncc(C#N)c2)ccc1NS(C)(=O)=O [Compound I-208]	> 25
Cc1cc(Oc2nc(-c3cncc(C#N)c3)ccc2NS(C)(=O)=O)nn1C [Compound I-113]	< 25
Cc1nc(C)c(C2CC2)cc1Oc1nc(-c2cncc(C#N)c2)ccc1NS(C)(=O)=O [Compound I-229]	1 to 10
Cc1cc(C)c(Oc2nc(-c3cncc(C#N)c3)ccc2NS(=O)(=O)C2COC2)c(C)n1 [Compound I-228]	1 to 10
Cc1cc(C)c(Oc2nc(-c3ccn(C)c(=O)c3)ccc2NS(C)(=O)=O)c(C)n1 [Compound I-186]	> 25
CC(=O)N1CCN(c2ccc(NS(C)(=O)=O)c(Oc3c(C)cc(C)cc3C)n2)CC1 [Compound I-17]	1 to 10
Cc1cc(C)c(Oc2nc(-c3cnn(C)c3)ccc2NS(C)(=O)=O)c(C)c1 [Compound I-14]	1 to 10
Cc1cc(C)c(Oc2nc(-n3cc(C)cn3)ccc2NS(C)(=O)=O)c(C)c1 [Compound I-11]	1 to 10
Cc1nc(C(F)F)nc(C)c1Oc1nc(-c2cncc(Cl)c2)ccc1NS(C)(=O)=O [Compound I-175]	> 25
Cc1cc(C(F)(F)F)nc(C)c1Oc1nc(-c2cncc(C3COC3)c2)ccc1NS(C)(=O)=O [Compound I-198]	> 25
Cc1nc(C2CC2)c(Cl)cc1Oc1nc(-c2cncc(C#N)c2)ccc1NS(C)(=O)=O [Compound I-120]	1 to 10
Cc1cc(C(F)F)nc(C)c1Oc1nc(-c2cncc(C3COC3)c2)ccc1NS(C)(=O)=O [Compound I-197]	1 to 10
Cc1cc(C)c(Oc2nc(N3CCN(C(=O)C4(C)CC4)CC3)ccc2NS(C)(=O)=O)c(C)c1 [Compound I-15]	> 25
Cc1nc(C2COC2)nc(C)c1Oc1nc(-c2cncc(C#N)c2)ccc1NS(C)(=O)=O [Compound I-174]	1 to 10
Cc1cc(C(F)(F)F)nc(C)c1Oc1nc(-c2cncc(C#N)c2)ccc1NS(=O)(=O)C1CC1 [Compound I-218]	10 to 25
Cc1cc(N2CC(F)(F)C2)nc(C)c1Oc1nc(-c2cncc(C#N)c2)ccc1NS(C)(=O)=O [Compound I-180]	> 25

Now from value to compound:

EC50 [µM]	SMILES
< 1	COC1CN(c2cncc(-c3ccc(NS(C)(=O)=O)c(Oc4c(C)cc(C)nc4C)n3)c2)C1 [Compound I-196]
< 1	Cc1cc(C(F)F)nc(C)c1Oc1nc(-c2cncc(C#N)c2)ccc1NS(C)(=O)=O [Compound I-230]
1 to 10	COc1cc(-c2ccc(NS(C)(=O)=O)c(Oc3c(C)cc(C)nc3C)n2)ccn1 [Compound I-188]
< 1	Cc1nc(C)c(C(F)(F)F)cc1Oc1nc(-c2cncc(C#N)c2)ccc1NS(C)(=O)=O [Compound I-225]
< 1	Cc1cc(C)c(Oc2nc(-c3cncc(N4CC(F)C4)c3)ccc2NS(C)(=O)=O)c(C)n1 [Compound I-185]
< 1	Cc1cc(C)c(Oc2nc(-c3cncc(C#N)c3)ccc2NS(C)(=O)=O)c(OC2CC2)n1 [Compound I-176]
1 to 10	CNS(=O)(=O)c1ccc(-c2cncc(C#N)c2)nc1Oc1c(C)cc(C(F)(F)F)nc1C [Compound I-168]
< 1	Cc1cc(C)c(Oc2nc(-c3cncc(N4CCC4)c3)ccc2NS(C)(=O)=O)c(C)n1 [Compound I-190]
1 to 10	Cc1nc(N2CC(F)(F)C2)nc(C)c1Oc1nc(-c2cncc(C#N)c2)ccc1NS(C)(=O)=O [Compound I-170]
< 1	Cc1nc(C(F)F)nc(C)c1Oc1nc(-c2cncc(C#N)c2)ccc1NS(C)(=O)=O [Compound I-173]
1 to 10	CNS(=O)(=O)c1ccc(-c2cncc(C#N)c2)nc1Oc1c(C)nc(C(F)(F)F)nc1C [Compound I-167]
< 1	C#Cc1cncc(-c2ccc(NS(C)(=O)=O)c(Oc3c(C)cc(C)nc3C)n2)c1 [Compound I-212]
1 to 10	Cc1cc(C)c(Oc2nc(-c3cncc(C#N)c3)ccc2N(C)S(C)(=O)=O)c(C)n1 [Compound I-166]
< 1	Cc1cc(C(F)(F)F)nc(C)c1Oc1nc(-c2ccnc(C#N)c2)ccc1NS(C)(=O)=O [Compound I-219]
< 1	Cc1cc(C)c(Oc2nc(-c3ccnc(C#N)c3)ccc2NS(=O)(=O)C2CC2)c(C)n1 [Compound I-211]
< 1	Cc1cc(Oc2nc(-c3cncc(C#N)c3)ccc2NS(C)(=O)=O)c(C)nc1C(F)(F)F [Compound I-182]
< 1	Cc1cc(OC2CC2)nc(C)c1Oc1nc(-c2cncc(C#N)c2)ccc1NS(C)(=O)=O [Compound I-132]
< 1	Cc1nc(C2CC2)c(C(F)(F)F)cc1Oc1nc(-c2cncc(C#N)c2)ccc1NS(C)(=O)=O [Compound I-184]
< 1	Cc1nc(C(F)(F)F)nc(C)c1Oc1nc(-c2cncc(C#N)c2)ccc1NS(C)(=O)=O [Compound I-200]

EC50 [µM]	SMILES
< 1	Cc1cc(Oc2nc(-c3cncc(C#N)c3)ccc2NS(C)(=O)=O)c(C)nc1C [Compound I-226]
1 to 10	Cc1cc(C(F)F)nc(C)c1Oc1nc(-c2cncc(C#N)c2)ccc1NS(=O)(=O)C1CC1 [Compound I-199]
< 1	Cc1cc(C)c(Oc2nc(-c3cncc(Cl)c3)ccc2NS(=O)(=O)C2COC2)c(C)n1 [Compound I-237]
< 1	Cc1nc(C)c(Oc2nc(-c3cncc(C#N)c3)ccc2NS(C)(=O)=O)c(C)n1 [Compound I-234]
1 to 10	Cc1cc(C)c(Oc2nc(-c3cncc(N4CCOCC4)c3)ccc2NS(C)(=O)=O)c(C)n1 [Compound I-201]
< 1	COCc1cncc(-c2ccc(NS(C)(=O)=O)c(Oc3c(C)cc(C)nc3C)n2)c1 [Compound I-231]
< 1	Cc1nc(C(F)(F)F)nc(C)c1Oc1nc(-c2cncc(Cl)c2)ccc1NS(C)(=O)=O [Compound I-205]
< 1	Cc1nc(C2CC2)c(C(F)F)cc1Oc1nc(-c2cncc(C#N)c2)ccc1NS(C)(=O)=O [Compound I-179]
< 1	CCS(=O)(=O)Nc1ccc(-c2cncc(C#N)c2)nc1Oc1c(C)cc(C(F)(F)F)nc1C [Compound I-217]
< 1	Cc1cc(C(F)F)nc(C)c1Oc1nc(-c2ccnc(C#N)c2)ccc1NS(C)(=O)=O [Compound I-204]
< 1	Cc1cc(C(F)F)nc(C)c1Oc1nc(-c2ccnc(C#N)c2)ccc1NS(=O)(=O)C1CC1 [Compound I-203]
< 1	Cc1nn(C)c(C)c1Oc1nc(-c2cncc(C#N)c2)ccc1NS(C)(=O)=O [Compound I-115]
< 1	Cc1nc(C)c(Oc2nc(-c3cncc(C4CC4)c3)ccc2NS(C)(=O)=O)c(C)n1 [Compound I-193]
< 1	Cc1cc(OC(F)(F)F)nc(C)c1Oc1nc(-c2cncc(C#N)c2)ccc1NS(C)(=O)=O [Compound I-131]
< 1	Cc1cc(C)c(Oc2nc(-c3cncc(C4COC4)c3)ccc2NS(C)(=O)=O)c(C)n1 [Compound I-216]
< 1	COc1cc(C)c(Oc2nc(-c3cncc(C#N)c3)ccc2NS(C)(=O)=O)c(C)n1 [Compound I-222]
< 1	COc1nc(C)cc(C)c1Oc1nc(-c2cncc(C#N)c2)ccc1NS(C)(=O)=O [Compound I-209]
< 1	Cc1cc(C2CC2)nc(C)c1Oc1nc(-c2cncc(Cl)c2)ccc1NS(=O)(=O)C1COC1 [Compound I-236]
< 1	Cc1nc(C2CC2)nc(C)c1Oc1nc(-c2cncc(C#N)c2)ccc1NS(C)(=O)=O [Compound I-183]
